Results: paper PMC8609006, “Design of modular autoproteolytic gene switches responsive to anti-coronavirus drug candidates” (Nature Communications, 2021)

Molecular target: T1, SARS-CoV-2 Mpro (Mpro(S2), 3CLpro) (Severe acute respiratory syndrome coronavirus 2, UniProt P0DTD1)
T1 construct: gene rep; mature Mpro (nsp5) cut from polyprotein pp1a/pp1ab, human codon-optimized, fused N-terminally to TetR-MproCSOPT-VP64 (pNF167), expressed in HEK293T; TAGS plasmids OK425851-OK425853 (not assigned singly)
Format: cell-based

In the case of `CC(C)(C)NC(=O)N[C@H](C(=O)N1C[C@H]2[C@@H]([C@H]1C(=O)NC(CC1CCC1)C(=O)C(N)=O)C2(C)C)C(C)(C)C` (stereo partly shown) [Boceprevir], the “Mpro-TAGS nanoLuc gain-of-signal reporter in HEK293T cells, 24 h” value is reported as “GRL-0496 and Boceprevir only slightly induced gene expression”.
